Experimental data published in patent US20240131028A1, “CHEMOVACCINATION AGAINST PLASMODIUM INFECTION WITH SELECTIVE PLASMEPSIN X INHIBITORS” (Merck Sharp & Dohme LLC, priority 2021, published 2024).
pEC50: −log10 of the molar value.

Each molecule was assayed on ring stage parasites (Pf) (assay: Parasite lactate dehydrogenase (LDH) growth assay (Parasite Assay, PfLDH Assay)). Details: Plasmodium falciparum, 72 h, Table 3; 72 hours growth, LDH readout; read-out: EC50.
Assay type: cell-based, P. falciparum
Method: The parasite stock was maintained at 4% haematocrit in RPMI-Hepes media buffered with sodium bicarbonate and supplemented with 5% heat inactivated human serum and 0.5% albumax. […] On the day of assay set up, a blood smear of the parasite culture was Giemsa stained and counted. The parasitemia was adjusted to 0.7% rings and the haematocrit was diluted to 2% in RPMI-Hepes media buffered with sodium bicarbonate and supplemented with 5% heat inactivated human serum and 0.5% albumax. 30 μl of diluted parasites are then added into 10 μl of media+compound in pre-prepared Greiner TC assay plates. Parasite assay plates were placed in gassed humidified boxes in single layer and allowed to incubate at 37° C. for 72 hours. After 72 hours growth, assay plates were sealed with parafilm and frozen flat, in single file at −80° C. overnight. On the following day, assay plates were allowed to thaw at room temperature for 4 hours to which an LDH assay was performed to measure parasite growth.
CCC1(CC)CC(=O)N([C@H](CCOC)[C@H]2C[C@@H]2C(=O)N[C@H]2CC(C)(C)Oc3ccccc32)C(=N)N1 [Example 1A] showed a pEC50 of 9.00.
Molecule CCC1(CC)CC(=O)N([C@H](CCOC)[C@H]2C[C@@H]2C(=O)N[C@@H]2CC(C)(C)Oc3ccccc32)C(=N)N1 [Example 1B] has a pEC50 of 6.60.
In the case of CCC1(CC)CC(=O)N(C[C@H]2C[C@@H]2C(=O)N[C@H](C)c2ccccc2)C(=N)N1 [Example 3B], the pEC50 was 6.82.
Molecule CCC1(CC)CC(=O)N(C[C@H]2C[C@@H]2C(=O)N[C@@H]2CCOc3ccccc32)C(=N)N1 [Example 4B] has a pEC50 of 7.59.
Molecule CCC1(CC)CC(=O)N(C[C@H]2C[C@@H]2C(=O)N[C@H]2CC(C)(C)Oc3ccccc32)C(=N)N1 [Example 5] has a pEC50 of 7.31.
In the case of CCC1(CC)CC(=O)N(C[C@H]2C[C@@H]2C(=O)N[C@H]2c3ccccc3C[C@@H]2O)C(=N)N1 [Example 6A], the pEC50 was 6.73.
CCC1(CC)CC(=O)N(C[C@H]2C[C@@H]2C(=O)N[C@H]2CC(C)(C)Oc3ccc(F)cc32)C(=N)N1 [Example 7A] gave a pEC50 of 6.87.
CCC1(CC)CC(=O)N(C[C@H]2C[C@@H]2C(=O)N[C@@H]2CC(C)(C)Oc3ccc(F)cc32)C(=N)N1 [Example 7B] was tested, and the pEC50 was 7.54.
CCC1(CC)CC(=O)N(C[C@H]2C[C@@H]2C(=O)N[C@H]2C[C@@H](C(F)(F)F)Oc3ccccc32)C(=N)N1 [Example 8A] showed a pEC50 of 7.43.
CCC1(CC)CC(=O)N(C[C@H]2C[C@@H]2C(=O)N[C@@H]2C[C@@H](C(F)(F)F)Oc3ccccc32)C(=N)N1 [Example 8B] gave a pEC50 of 8.28.
CCC1(CC)CC(=O)N([C@H](c2cccnc2)[C@H]2C[C@@H]2C(=O)N[C@H]2CCOc3ccccc32)C(=N)N1 [Example 9] showed a pEC50 of 8.16.
Molecule CCC1(CC)CC(=O)N([C@H](c2cccnc2)[C@H]2C[C@@H]2C(=O)N[C@@H]2c3ccccc3C[C@@H]2O)C(=N)N1 [Example 10] has a pEC50 of 7.57.
Work on CCC1(CC)CC(=O)N([C@H](c2cccnc2)[C@H]2C[C@@H]2C(=O)N[C@@H]2c3ccccc3OC(C)(C)[C@H]2O)C(=N)N1 [Example 11A] yielded a pEC50 of 8.39.
Molecule CCC1(CC)CC(=O)N([C@H](c2cccnc2)[C@H]2C[C@@H]2C(=O)N[C@H]2c3ccccc3OC(C)(C)[C@H]2O)C(=N)N1 [Example 11B] has a pEC50 of 7.62.
CCC1(CC)CC(=O)N([C@H](c2cccnc2)[C@H]2C[C@@H]2C(=O)N[C@H]2C[C@@H](C(F)(F)F)Oc3ccccc32)C(=N)N1 [Example 12] showed a pEC50 of 9.05.
Molecule CCC1(CC)CC(=O)N([C@H](CCOC)[C@H]2C[C@@H]2C(=O)N[C@@H]2c3ccccc3C[C@@H]2O)C(=N)N1 [Example 13] has a pEC50 of 7.62.
Molecule CCC1(CC)CC(=O)N([C@H](CCOC)[C@H]2C[C@@H]2C(=O)N[C@H]2C[C@@H](C(F)(F)F)Oc3ccccc32)C(=N)N1 [Example 14] has a pEC50 of 9.05.

Same assay, conditions: Table 3; 72 hours growth, LDH readout; read-out: EC50
For CC[C@]1(C)CC(=O)N(C(c2cncc(F)c2)[C@H]2C[C@@H]2C(=O)N[C@@H]2c3ccccc3OC(C)(C)C2(C)O)C(=N)N1 (single isomer, unassigned) [Example 103B], the pEC50 was 8.68.
CC[C@]1(C)CC(=O)N(C(c2cncc(F)c2)[C@H]2C[C@@H]2C(=O)NC2c3ccccc3OC(C(F)(F)F)C2O)C(=N)N1 (single isomer, unassigned) [Example 104A] gave a pEC50 of 8.40.
Work on CC[C@]1(C)CC(=O)N(C(c2cncc(F)c2)[C@H]2C[C@@H]2C(=O)NC2c3ccccc3OC(C(F)(F)F)C2O)C(=N)N1 (single isomer, unassigned) [Example 104B] yielded a pEC50 of 7.66.
With CCC1(C)CC(NC(=O)[C@H]2C[C@@H]2[C@@H](c2cccnc2)N2C(=N)NC(C)(C)CC2=O)c2ccccc2O1 (single isomer, unassigned) [Example 105A] the pEC50 was 9.05.
In the case of CCC1(C)CC(NC(=O)[C@H]2C[C@@H]2[C@@H](c2cccnc2)N2C(=N)NC(C)(C)CC2=O)c2ccccc2O1 (single isomer, unassigned) [Example 105B], the pEC50 was 8.74.
CCC1(C)CC(NC(=O)[C@H]2C[C@@H]2[C@@H](c2cccnc2)N2C(=N)NC(C)(C)CC2=O)c2ccccc2O1 (single isomer, unassigned) [Example 105C] gave a pEC50 of 9.10.
CCC1(C)CC(NC(=O)[C@H]2C[C@@H]2[C@@H](c2cccnc2)N2C(=N)NC(C)(C)CC2=O)c2ccccc2O1 (single isomer, unassigned) [Example 105D] was tested, and the pEC50 was 9.05.
COCC1(C)CC(NC(=O)[C@H]2C[C@@H]2[C@@H](c2cccnc2)N2C(=N)NC(C)(C)CC2=O)c2ccccc2O1 (single isomer, unassigned) [Example 108A] was tested, and the pEC50 was 7.15.
Molecule COCC1(C)CC(NC(=O)[C@H]2C[C@@H]2[C@@H](c2cccnc2)N2C(=N)NC(C)(C)CC2=O)c2ccccc2O1 (single isomer, unassigned) [Example 108B] has a pEC50 of 8.43.
COCC1(C)CC(NC(=O)[C@H]2C[C@@H]2[C@@H](c2cccnc2)N2C(=N)NC(C)(C)CC2=O)c2ccccc2O1 (single isomer, unassigned) [Example 108C] was tested, and the pEC50 was 8.22.
Molecule COCC1(C)CC(NC(=O)[C@H]2C[C@@H]2[C@@H](c2cccnc2)N2C(=N)NC(C)(C)CC2=O)c2ccccc2O1 (single isomer, unassigned) [Example 108D] has a pEC50 of 8.07.
With CC1(C)CC(=O)N([C@H](c2cccnc2)[C@H]2C[C@@H]2C(=O)NC2CC(C)(C)Oc3ccc(C(F)(F)F)cc32)C(=N)N1 (single isomer, unassigned) [Example 109A] the pEC50 was 8.64.
For CC1(C)CC(=O)N([C@H](c2cccnc2)[C@H]2C[C@@H]2C(=O)NC2CC(C)(C)Oc3ccc(C(F)(F)F)cc32)C(=N)N1 (single isomer, unassigned) [Example 109B], the pEC50 was 9.00.
CC[C@]1(C)CC(=O)N([C@H](CCOC)[C@H]2C[C@@H]2C(=O)NC2CC(C)(C)Oc3ccc(C(F)(F)F)cc32)C(=N)N1 (single isomer, unassigned) [Example 127A] gave a pEC50 of 8.96.
CC[C@]1(C)CC(=O)N([C@H](CCOC)[C@H]2C[C@@H]2C(=O)NC2CC(C)(C)Oc3ccc(C(F)(F)F)cc32)C(=N)N1 (single isomer, unassigned) [Example 127B] showed a pEC50 of 8.59.
Molecule CC[C@]1(C)CC(=O)N([C@H](CCOC)[C@H]2C[C@@H]2C(=O)NC2CC(C)(C)Oc3ccc(F)cc32)C(=N)N1 (single isomer, unassigned) [Example 130A] has a pEC50 of 9.05.
Work on CC[C@]1(C)CC(=O)N([C@H](CCOC)[C@H]2C[C@@H]2C(=O)NC2CC(C)(C)Oc3ccc(F)cc32)C(=N)N1 (single isomer, unassigned) [Example 130B] yielded a pEC50 of 8.62.
Work on CCC1C[C@H](NC(=O)[C@H]2C[C@@H]2CN2C(=N)NC(C)(C)CC2=O)c2ccccc2O1 (single isomer, unassigned) [Example 133A] yielded a pEC50 of 6.68.
CCC1C[C@H](NC(=O)[C@H]2C[C@@H]2CN2C(=N)NC(C)(C)CC2=O)c2ccccc2O1 (single isomer, unassigned) [Example 133B] gave a pEC50 of 7.00.
In the case of COCC[C@H]([C@H]1C[C@@H]1C(=O)NC1CC(C)(C)Oc2cc(OC(F)(F)F)ccc21)N1C(=N)NC(C)(C)CC1=O (single isomer, unassigned) [Example 134A], the pEC50 was 7.15.
For COCC[C@H]([C@H]1C[C@@H]1C(=O)NC1CC(C)(C)Oc2cc(OC(F)(F)F)ccc21)N1C(=N)NC(C)(C)CC1=O (single isomer, unassigned) [Example 134B], the pEC50 was 7.60.
With CCC1(CC)CC(=O)N(C[C@H]2C[C@@H]2C(=O)N[C@H]2c3ccccc3C[C@@H]2O)C(=N)N1 [Example 6B] the pEC50 was 6.57.

Same assay, conditions: Table 4; 72 hours growth, LDH readout; read-out: EC50 (Table 4)
Work on CCC1(CC)CC(=O)N(C(CC(C)OC)[C@H]2C[C@@H]2C(=O)N[C@H]2CC(C)(C)Oc3ccccc32)C(=N)N1 (single isomer, unassigned) [Example 142A] yielded a pEC50 of 8.72.
With CCC1(CC)CC(=O)N(C(CC(C)OC)[C@H]2C[C@@H]2C(=O)N[C@H]2CC(C)(C)Oc3ccccc32)C(=N)N1 (single isomer, unassigned) [Example 142B] the pEC50 was 9.15.
For CCC1(CC)CC(=O)N(C(CC(C)OC)[C@H]2C[C@@H]2C(=O)N[C@H]2CC(C)(C)Oc3ccccc32)C(=N)N1 (single isomer, unassigned) [Example 142C], the pEC50 was 6.69.
For CCC1(CC)CC(=O)N(C(CC(C)OC)[C@H]2C[C@@H]2C(=O)N[C@H]2CC(C)(C)Oc3ccccc32)C(=N)N1 (single isomer, unassigned) [Example 142D], the pEC50 was 6.94.
Molecule CCC1(CC)CC(=O)N(C(CC(C)OC)[C@H]2C[C@@H]2C(=O)N[C@@H]2CC(C)(C)Oc3ccccc32)C(=N)N1 (single isomer, unassigned) [Example 143A] has a pEC50 of 8.34.
CCC1(CC)CC(=O)N(C(CC(C)OC)[C@H]2C[C@@H]2C(=O)N[C@@H]2CC(C)(C)Oc3ccccc32)C(=N)N1 (single isomer, unassigned) [Example 143B] showed a pEC50 of 8.62.
With CCC1(CC)CC(=O)N(C(CC(C)OC)[C@H]2C[C@@H]2C(=O)N[C@@H]2CC(C)(C)Oc3ccccc32)C(=N)N1 (single isomer, unassigned) [Example 143C] the pEC50 was 7.24.
CCC1(CC)CC(=O)N([C@H](CCOC)[C@H]2C[C@@H]2C(=O)NC2CC(C)(C)Oc3cc(Cl)ccc32)C(=N)N1 (single isomer, unassigned) [Example 147A] showed a pEC50 of 8.55.
With CCC1(CC)CC(=O)N([C@H](CCOC)[C@H]2C[C@@H]2C(=O)NC2CC(C)(C)Oc3cc(Cl)ccc32)C(=N)N1 (single isomer, unassigned) [Example 147B] the pEC50 was 8.09.
